Data as given in article PMC10487456, “Canagliflozin Inhibited the Activity of Hemolysin and Reduced the Inflammatory Response Caused by Streptococcus suis” (International Journal of Molecular Sciences, 2023).

Columns and labels:
SLY (hemolysin) [1] = biological target: T1, SLY (hemolysin) (Streptococcus suis, UniProt Q55996); experiment: biochemical; settings: read-out: % inhibition at 16 μg/mL
SLY (hemolysin) [2] = biological target: T1, SLY (hemolysin); experiment: biochemical

T1 sequence (Q55996 28-497 limits assumed): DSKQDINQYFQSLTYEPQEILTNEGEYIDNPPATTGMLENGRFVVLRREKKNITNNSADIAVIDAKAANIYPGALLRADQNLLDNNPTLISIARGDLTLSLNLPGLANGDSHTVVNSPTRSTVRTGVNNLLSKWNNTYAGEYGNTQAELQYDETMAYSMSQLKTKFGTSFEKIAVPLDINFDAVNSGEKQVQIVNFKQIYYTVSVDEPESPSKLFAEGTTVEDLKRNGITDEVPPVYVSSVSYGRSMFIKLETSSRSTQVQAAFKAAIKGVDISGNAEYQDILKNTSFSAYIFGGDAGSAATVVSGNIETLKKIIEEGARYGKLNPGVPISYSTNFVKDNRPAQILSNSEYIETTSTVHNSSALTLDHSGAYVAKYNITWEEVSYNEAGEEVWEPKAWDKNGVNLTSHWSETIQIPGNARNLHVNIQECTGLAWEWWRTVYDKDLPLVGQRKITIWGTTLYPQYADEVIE

Cc1ccc([C@@H]2O[C@H](CO)[C@@H](O)[C@H](O)[C@H]2O)cc1Cc1ccc(-c2ccc(F)cc2)s1 [canagliflozin]
inhibition at 16 µg/mL (SLY (hemolysin) [1]): 76% | Kd (SLY (hemolysin) [2]): 900 nM
